Measured values taken from patent US20150125452A1, “COMBINATION TREATMENTS COMPRISING C-MET ANTAGONISTS AND B-RAF ANTAGONISTS” (GENENTECH, INC., priority 2011, published 2015).
“Also recorded” adds a separate entry of the source.

Assays:
Type in all cases: cell-based, Human
[1] = system: kinase-addicted cancer cell lines; test: RTK ligand matrix screen, Syto 60 cell viability
Procedure: (§1) Cell viability was assessed using the nucleic acid stain Syto 60 (Invitrogen). Cells (3000-5000 per well) were seeded into 96 well plates and allowed to adhere overnight. The next day, cells were treated with (or without) 50 ng/mL RTK ligand and concomitantly exposed to an increasing concentration range of the relevant kinase inhibitor. Following 72 hours drug exposure, cells were fixed in 4% formaldehyde, stained with Syto 60 and cell number was assessed using an Odyssey scanner (Li-Cor). Cell viability was calculated by dividing the fluorescence obtained from the drug-treated cells by the fluorescence obtained from the control (no drug) treated cells.
Cell lines. Human cancer cell lines were obtained and tested for sensitivity using an automated platform as previously described (Johannessen, C. M. et al. COT drives resistance to RAF inhibition through MAP kinase pathway reactivation. Nature 468, 968-972, doi:10.1038/nature09627 (2010)). Cell lines were maintained at 37° C. in a humidified atmosphere at 5% CO2 and grown in RPMI 1640 or DMEM/F12 growth media (GIBCO) supplemented with 10% fetal bovine serum (GIBCO), 50 units/mL penicillin and 50 μg/mL streptomycin (GIBCO).
Using 41 different human tumor-derived cell lines with previously defined kinase dependency^7-9, we undertook a “matrix analysis” to examine the effects of 6 different RTK ligands (HGF, EGF, FGF, PDGF, NRG1, IGF)—known to be widely expressed in cancer cells and tumor stroma^10—on drug response. Specifically, we quantified the effect of exposing these cancer cell lines (e.g., AU565 (HER2 amp)) to each ligand on the IC50 for a kinase inhibitor (e.g., lapatinib) that otherwise potently suppresses their growth within 72 hours (FIG. 1A). Nearly all of the kinase-dependent cancer cell lines tested, which included cells derived from multiple tissue types and with distinct kinase dependencies (EGFR, HER2, BRAF, MET, ALK, PDGFR, and FGFR), could be rescued from drug-induced growth inhibition by one or more RTK ligands, highlighting the potentially broad contribution of these ligands to the response to selective kinase inhibitors in kinase-addicted tumor cells (FIG. 1B).

SK-MEL-28 cells = test: Secreted factor screen, Cell Titer Glo; details: 5 μM PLX[…], 50 ng/mL factor, 72 h, 446 factors
Procedure: […] […] […] Error bars represent mean+/−s.e.m.
Following 72 h incubation, cell viability was determined using Cell Titer Glo (Promega).

[2] = system: H3122 EML4-ALK translocated NSCLC cancer cell line; test: Cell viability assay with TAE684 or crizotinib and HGF; details: TAE684, 50 ng/mL HGF, 72 h
Procedure: Error bars represent mean+/−s.e.m.
as §1, with “Following 72 hours drug exposure, cells were fixed in 4% formaldehyde, stained with Syto 60 and cell number was assessed using an Odyssey scanner (Li-Cor).” left out

[3] = system: AU565 HER2 amplified breast cancer cells; test: Syto 60 viability and long-term staining with lapatinib and ligands
Procedure: FIGS. 3A-3G: HGF promoted lapatinib resistance in HER2 amplified cell lines. […] HGF rescue is indicated, black squares indicates partial rescue as determined by the initial screen (FIG. 1B). […] Cells were treated every three days for the indicated times. […] FIG. 3D, Immunoblots showing the re-activation of pAKT and pERK in two MET positive (AU565, HCC1954) and one MET negative (BT474) HER2 amplified cell lines. […] FIG. 3E, Representative slides showing MET expression in HER2 positive (3+) breast cancer tissues. FIG. 3F, selection of higher MET expressing AU565 cells following 3× treatments with lapatinib (1 μM) and HGF (50 ng/mL). FIG. 3G. […] Cells were treated twice weekly for the indicated times.
AU565 sells were co-treated with lapatinib (1 μM) in combination with 10 ng/mL NRG1 or FGF. […] Cells were treated with the appropriate kinase inhibitors in the presence of HGF (50 ng/mL). Cells were then treated with either 100 nM PI3K inhibitor (BEZ235) or MAPK inhibitor (AZD6244). Error bars represent mean+/−s.e.m.
as §1

[4] = system: H2228 EML4-ALK translocated NSCLC cells; test: Syto 60 viability and long-term staining with TAE684 and HGF
Procedure: Cells were co-treated with 50 ng/mL HGF. Error bars represent mean+/−s.e.m. […] FIG. 8C, Syto 60 staining of H2228 EML4-ALK translocated NSCLC cells treated with TAE684 (2 μM) in the presence and absence of HGF (50 ng/mL) as indicated. Cells were treated every 3 days for 9 days. FIG. 8D, Syto 60 staining of H358 EGF-like ligand-driven NSCLC cells treated with Erlotinib (5 μM) in the presence and absence of HGF (50 ng/mL) as indicated. Cells were treated every 3 days for 9 days.
FIG. 16: Syto 60 staining of H2228 EML4-ALK translocated NSCLC cells treated with TAE684 (2 μM) in the presence or absence of HGF (50 ng/mL) as indicated. Cells were treated every 3 days for 9 days.
as §1

[5] = system: BRAF mutant melanoma cell lines; test: Syto 60 cell viability, HGF rescue from PLX[…]; details: additional twelve cell lines
Procedure: Cells were treated twice weekly for the indicated times. […] Error bars represent mean+/−s.e.m.
as §1, with “Following 72 hours drug exposure, cells were fixed in 4% formaldehyde, stained with Syto 60 and cell number was assessed using an Odyssey scanner (Li-Cor).” left out

[6] = system: HER2-amplified breast cancer cell lines; test: Syto 60 cell viability, ligand rescue from lapatinib; details: 50 ng/mL ligand, 72 h
Procedure: as §1
The ability of HGF to rescue 3 of 9 tested HER2-amplified breast cancer cell lines from growth inhibition by the HER2 kinase inhibitor lapatinib was also unexpected (FIG. 3A). These 3 cell lines all express MET, and expression was well correlated with the ability of HGF to attenuate lapatinib response (FIG. 3B).

HGF: recombinant human RTK ligand (MET ligand) purchased from Peprotech
effect of RTK ligand on conferring drug resistance to kinase inhibitors ([1]; 50 ng/mL RTK ligand, 72 h, 41 cell lines): most broadly active ligands | effect of HGF on response to PLX[…] ([1]; BRAF mutant PLX[…]-sensitive melanoma and colorectal cell lines): significantly attenuated the response | rescue despite activation of receptor and a downstream survival effector ([1]; H2228 and H358 cells with HGF, COLO-201 cells with NRG1): not sufficient to rescue cells from kinase inhibition | effect of secreted factor on PLX[…] sensitivity (SK-MEL-28 cells): could attenuate PLX4032 sensitivity | rescue from ALK inhibition by HGF [2]: efficiently rescued from ALK inhibition | MET expression of cell population after co-treatment ([3]; 9-day lapatinib and HGF co-treatment): increased MET expression | resistance to lapatinib on longer-term co-treatment ([3]; 12 days, lapatinib 1 μM, HGF 50 ng/mL): rapidly promoted resistance to lapatinib | effect of HGF on longer-term TAE684 treatment ([4]; TAE684 2 μM, HGF 50 ng/mL, every 3 days for 9 days): rescued; also recorded: prevented acquired resistance to TAE684 | rescue from ALK inhibition by HGF at 72 hour time-point ([4]; TAE684, HGF, 72 h): not rescued from ALK inhibition | number of additional BRAF mutant melanoma lines with HGF-attenuated PLX[…] sensitivity [5]: 5 of the 12 | number of HER2-amplified breast cancer cell lines rescued from lapatinib [6]: 3 of 9
